Consider three molecules from patent US7754887B2, “Process for production of sulfoxide derivatives or salts thereof in the amorphous state” (EISAI R&D Management Co., Ltd., priority 2003, dated 2010).

The conditions of series [1]: scan speed 2° C./min, 20 to 120° C.; FIG. 6.
Series [2] in a line: Measurement of specific surface (nitrogen-absorption isotherm, BET method). The following applies: Sodium Salt; for Specific surface: BET method, nitrogen absorption at 77 K after vacuum degassing at 50° C.; for Specific surface, relative comparison: relative to the freeze-dried product. It is filed as physicochemical. How it is done: Measurement of Specific Surface:
As for each of amorphous substances of 2-[[4-(3-methoxypropoxy)-3-methylpyridine-2-yl]methylsulfinyl]-1H-benzimidazole sodium salt obtained by freeze-drying (Reference example 2), heat-drying (Example 3), respectively, the nitrogen-absorption isotherms were measured at liquid nitrogen temperature (77 K) by a high accuracy full automatic gas absorption equipment “BELSORP 36” (prepared by Japan Bell) after vacuum degassing at 50° C. These isotherms were analyzed by BET method to obtain the specific surface.

A short description of series [3]: Measurement of particle size distribution by laser diffractometry (Microtrac X100). Type of series: physicochemical. To be noted: Sodium Salt; for particle size distribution: Microtrac X100, FIG. 4 and FIG. 5; for 90% cumulative diameter: calculated by measurement of the particle size distribution. How it is done:
The measurement of particle size distribution by laser diffractometry can be conducted, for example, by using “Microtrac X100” (made by Leeds And Northrup). In the case where the particle size distribution of the amorphous substance of sulfoxide derivative (I) or the salt thereof, which is prepared by conducting the above-mentioned heat-drying, is measured by the laser diffractometry, the amorphous substance of sulfoxide derivative (I) or the salt thereof has 50 μm or less, preferably 30 μm or less of average particle diameter, and 80 μm or less, preferably 50 μm or less of 90% cumulative diameter.

For the molecule `CC(C)=O.COCCCOc1ccnc(C[S+]([O-])c2nc3ccccc3[n-]2)c1C.[Na+]` (stereo not shown) [Acetone Complex of 2-[[4-(3-methoxypropoxy)-3-methylpyridine-2-yl]methylsulfinyl]-1H-benzimidazole Sodium Salt], in series [1], the “temperature at which the acetone starts to be effectively decreased” value was not below 76.7 °C and the “temperature at which the weight starts to be decreased” value is not below 65.7 °C.

In the case of `COCCCOc1ccnc(C[S+]([O-])c2nc3ccccc3[nH]2)c1C.[Na]` (stereo not shown) [The freeze-dried product, 2-[[4-(3-methoxypropoxy)-3-methylpyridine-2-yl]methylsulfinyl]-1H-benzimidazole Sodium Salt], in series [2], the Specific surface came out at 2.3 m^2/g and the “Specific surface, relative comparison” value is given as 1.00. Besides, in series [3], the particle size distribution result is “broad” and the 90% cumulative diameter is given as 192.3 μm.

As to `COCCCOc1ccnc(C[S+]([O-])c2nc3ccccc3[nH]2)c1C.[Na]` (stereo not shown) [The heat-dried product, 2-[[4-(3-methoxypropoxy)-3-methylpyridine-2-yl]methylsulfinyl]-1H-benzimidazole Sodium Salt], in series [2], the Specific surface stood at 1.6 m^2/g and the “Specific surface, relative comparison” value turned out to be 0.70. Moreover, in series [3], the particle size distribution entry was “sharp” and the 90% cumulative diameter was 18.0 μm.
